Measurements taken from US12649750B2, “Macrocyclic compounds, compositions, and methods of using thereof” (Sionna Therapeutics Inc., priority 2022, dated 2026).

Experiments:
[1] = target: T1, NBD1 (Homo sapiens, UniProt P13569); test: Aggregation analysis using differential static light scattering (DSLS), thermal stability of NBD1 (ΔTagg); format: binding; details: ΔTagg versus DMSO control, NBD1 0.2 mg/ml
T1 construct: Purified recombinant NBD1 was produced using previously described methods; made in house
Procedure, shortened: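 Read-out is ΔTagg: the aggregation temperature, taken at the inflection of the light-scattering curve, less the average of DMSO control wells. Recombinant NBD1 (0.2 mg/ml, pH7.6 buffer containing 2 mM ATP) with test compound was heated at 1° C. per minute up to 70° C.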

[2] = target: T2, CFTR (Homo sapiens, UniProt P13569, DEL508-508); test: TECC24 AUC fold over DMSO @10 μM, CFTR-mediated transepithelial chloride transport in CF-HBE cells; format: cell-based; details: test agent AUC divided by DMSO vehicle AUC, primary CF-HBE cells, ΔF508 homozygous donor, 48 hours incubation
T2 construct: Primary human bronchial epithelial cells from a ΔF508 homozygous CF donor; host or cells: primary human bronchial epithelial cells (CF-HBE), ΔF508 homozygous donor
Procedure, shortened: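 Primary ΔF508-homozygous CF bronchial epithelial cells on inserts were incubated 48 h at 36.5 °C with compound in IL-13-containing medium. VT and TEER were then recorded in current-clamp mode (pH 7.4 HEPES bath) with benzamil 10 μM, forskolin 10 μM, then CFTR inhibitor-172 20 μM. The IEQ AUC between forskolin and inhibitor was divided by vehicle AUC.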

T2 sequence (P13569 with tags, fused parts or gaps DEL508-508): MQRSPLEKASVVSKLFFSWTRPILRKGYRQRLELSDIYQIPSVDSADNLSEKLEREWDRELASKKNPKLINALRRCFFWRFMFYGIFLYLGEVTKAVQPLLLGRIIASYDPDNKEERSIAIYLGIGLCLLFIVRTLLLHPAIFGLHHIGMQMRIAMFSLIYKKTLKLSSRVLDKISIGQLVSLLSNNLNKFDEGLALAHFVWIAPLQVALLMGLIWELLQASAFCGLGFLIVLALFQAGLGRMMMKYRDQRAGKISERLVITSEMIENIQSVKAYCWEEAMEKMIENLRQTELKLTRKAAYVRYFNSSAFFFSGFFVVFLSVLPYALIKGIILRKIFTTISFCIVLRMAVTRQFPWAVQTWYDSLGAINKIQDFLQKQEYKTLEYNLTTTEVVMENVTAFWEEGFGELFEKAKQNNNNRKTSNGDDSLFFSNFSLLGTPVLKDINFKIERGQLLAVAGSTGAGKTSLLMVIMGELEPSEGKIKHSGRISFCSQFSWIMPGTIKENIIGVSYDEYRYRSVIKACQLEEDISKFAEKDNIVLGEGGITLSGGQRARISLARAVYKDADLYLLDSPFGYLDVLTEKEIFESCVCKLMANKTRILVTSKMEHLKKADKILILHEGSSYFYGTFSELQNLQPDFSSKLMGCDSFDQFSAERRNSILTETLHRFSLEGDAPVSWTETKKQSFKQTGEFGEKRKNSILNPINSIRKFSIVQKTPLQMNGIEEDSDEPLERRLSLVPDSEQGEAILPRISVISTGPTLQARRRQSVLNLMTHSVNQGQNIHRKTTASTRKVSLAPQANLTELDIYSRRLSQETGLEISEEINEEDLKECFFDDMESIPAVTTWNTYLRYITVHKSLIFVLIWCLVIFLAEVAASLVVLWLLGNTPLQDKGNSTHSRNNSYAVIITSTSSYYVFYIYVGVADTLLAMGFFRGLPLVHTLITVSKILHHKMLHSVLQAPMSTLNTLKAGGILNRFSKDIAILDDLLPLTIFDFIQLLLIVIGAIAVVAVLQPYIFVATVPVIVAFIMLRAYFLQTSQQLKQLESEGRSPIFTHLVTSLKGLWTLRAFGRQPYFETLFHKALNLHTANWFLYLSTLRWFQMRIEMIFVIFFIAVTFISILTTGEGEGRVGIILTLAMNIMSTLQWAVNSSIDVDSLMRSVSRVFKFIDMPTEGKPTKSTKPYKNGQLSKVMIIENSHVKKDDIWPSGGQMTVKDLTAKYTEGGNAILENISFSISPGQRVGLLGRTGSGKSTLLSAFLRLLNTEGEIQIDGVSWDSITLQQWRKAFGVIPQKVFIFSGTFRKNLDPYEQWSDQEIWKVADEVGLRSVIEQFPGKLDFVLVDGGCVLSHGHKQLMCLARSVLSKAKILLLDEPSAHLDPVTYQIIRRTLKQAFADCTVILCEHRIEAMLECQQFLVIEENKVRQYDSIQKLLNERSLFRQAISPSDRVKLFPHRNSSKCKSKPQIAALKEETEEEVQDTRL
T1 sequence (P13569 423-646 limits assumed): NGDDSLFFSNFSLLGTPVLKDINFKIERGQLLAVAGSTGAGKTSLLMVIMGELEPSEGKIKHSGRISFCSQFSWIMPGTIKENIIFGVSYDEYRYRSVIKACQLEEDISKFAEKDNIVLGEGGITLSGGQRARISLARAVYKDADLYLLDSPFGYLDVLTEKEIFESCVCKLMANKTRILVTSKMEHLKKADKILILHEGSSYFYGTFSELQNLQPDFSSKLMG

Row | Compound | DSLS 3D (100 μM ΔT) [1] | TECC (AUC, 10 μM) [2]
1 | Cn1nc2nc1-c1cc(ccc1F)Oc1c(F)cc3[nH]ccc3c1Cn1cc(cn1)C(C)(C)S(=O)(=O)CCCC2(C)c1cccc(CCC(=O)O)c1 (stereo not drawn) [Compound 111, 3-[3-(24,30-Difluoro-3,6,11,11-tetramethyl-10,10-dioxo-26-oxa-10λ6-thia-3,4,14,15,21,33-hexazahexacyclo[25.3.1.12,5.112,15.017,25.018,22]-tritriaconta-1(31),2(33),4,12(32),13,17,19,22,24,27,29-undecaen-6-yl)phenyl]propanoic Acid] | C (a value greater than 10 °C and less than or equal to 25 °C is marked “C”) | B (a value between 12-20 is marked “B”)
2 | [2H]C([2H])([2H])C1(c2cccc(CC(C)C(=O)O)c2)CCCC(C([2H])([2H])[2H])(C([2H])([2H])[2H])CS(=O)(=O)CCc2c(c(F)cc3[nH]ccc23)Oc2ccc(F)c(c2)-c2nc1nn2C (single isomer, unassigned) [Compound 9B, 3-[3-[22,28-difluoro-3-methyl-12,12-dioxo-6,10,10-tris(trideuteriomethyl)-24-oxa-12lambda6-thia-3,4,19,30-tetrazapentacyclo[23.3.1.12,5.015,23.016,20]triaconta-1(29),2(30),4,15,17,20,22,25,27-nonaen-6-yl]phenyl]-2-methyl-propanoic Acid] | A (an ΔTagg value less than or equal to 5 °C is marked “A”) | A (a TECC value less than 12 is marked “A”)
3 | Cn1nc2nc1-c1cc(ccc1F)Oc1c(F)cc3[nH]ccc3c1CCS(=O)(=O)CC(C)(C)CCCC2(C)c1cccc(CC(C)(C)C(=O)O)c1 (single isomer, unassigned) [Compound 29B, 3-[3-(22,28-Difluoro-3,6,10,10-tetramethyl-12,12-dioxo-24-oxa-12lambda6-thia-3,4,19,30-tetrazapentacyclo[23.3.1.12,5.015,23.016,20]triaconta-1(29),2(30),4,15,17,20,22,25,27-nonaen-6-yl)phenyl]-2,2-dimethyl-propanoic acid] | A (an ΔTagg value less than or equal to 5 °C is marked “A”) | A (a TECC value less than 12 is marked “A”)
4 | O=C1CCCS(=O)(=O)CCc2c(c(F)cc3[nH]ccc23)Oc2ccc(F)c(c2)-c2ncc([nH]2)C(c2ccccc2)N1 (single isomer, unassigned) [Compound 81, 22,28-difluoro-12,12-dioxo-6-phenyl-24-oxa-12lambda6-thia-3,7,19,30 tetrazapentacyclo[23.3.1.12,5.015,23.016,20]triaconta-1(29),2,4,15,17,20,22,25,27-nonaen-8-one] | A (an ΔTagg value less than or equal to 5 °C is marked “A”) | A (a TECC value less than 12 is marked “A”)
5 | CC1(C)CCCC(C)(c2cccc(CCC(=O)O)c2)c2nc(n[nH]2)-c2cc(ccc2F)Oc2c(F)cc3[nH]ccc3c2CCS(=O)(=O)C1 (single isomer, unassigned) [Compound 63A, 3-[3-(22,28-difluoro-6,10,10-trimethyl-12,12-dioxo-24-oxa-12λ6-thia-3,4,19,30-tetrazapentacyclo[23.3.1.12,5.015,23.016,20]triaconta-1(29),2,5(30),15,17,20,22,25,27-nonaen-6-yl)phenyl]propanoic Acid] | B (a value above 5 °C and less than or equal to 10 °C is marked “B”) | C (a value between 20 and 80 is marked “C”)
6 | C[C@@H](Cc1cccc([C@@]2(C)CCCC(C)(C)CS(=O)(=O)CCc3c(c(F)cc4[nH]ccc34)[S+]([O-])c3cccc(c3)-c3nc2co3)c1)C(=O)O (stereo partly drawn) [Compound 294, (2S)-3-[3-[(6R)-22-fluoro-6,10,10-trimethyl-12,12,24-trioxo-3-oxa-12λ6,24λ4-dithia-19,30-diazapentacyclo[23.3.1.12,5.015,23.016,20]triaconta-1(29),2(30),4,15,17,20,22,25,27-nonaen-6-yl]phenyl]-2-methyl-propanoic Acid] | C (a value greater than 10 °C and less than or equal to 25 °C is marked “C”) | A (a TECC value less than 12 is marked “A”)
7 | C[C@@H](Cc1cccc(C2(C)CCCC(C)(C)CS(=O)(=O)CCc3c(c(F)cc4[nH]ccc34)[S+]([O-])c3ccc(F)c(c3)-c3nc2nn3C)n1)C(=O)O (single isomer, unassigned) [Compound 179B] | A (an ΔTagg value less than or equal to 5 °C is marked “A”) | A (a TECC value less than 12 is marked “A”)
8 | [2H]C([2H])([2H])C1(c2cccc(C[C@H](C)C(=O)O)c2)CCCC2(COC2)CS(=O)(=O)CCc2c(c(F)cc3[nH]ccc23)Oc2ccc(F)c(c2)-c2nc1nn2C (single isomer, unassigned) [Compound 130A] | C (a value greater than 10 °C and less than or equal to 25 °C is marked “C”) | C (a value between 20 and 80 is marked “C”)
9 | [2H]C([2H])([2H])C1(c2cccc(CC(C)C(=O)O)c2)CCCC(C)(C)CS(=O)(=O)CCc2c(c(F)cc3[nH]ccc23)Oc2ccc(F)c(c2)-c2nc1nn2C (single isomer, unassigned) [Compound 10A, 3-[3-[22,28-difluoro-3,10,10-trimethyl-12,12-dioxo-6-(trideuteriomethyl)-24-oxa-12lambda6-thia-3,4,19,30-tetrazapentacyclo[23.3.1.12,5.015,23.016,20]triaconta-1(29),2(30),4,15,17,20,22,25,27-nonaen-6-yl]phenyl]-2-methyl-propanoic Acid] | C (a value greater than 10 °C and less than or equal to 25 °C is marked “C”) | A (a TECC value less than 12 is marked “A”)
10 | C[C@@H](Cc1cccc([C@@]2(C)CCCC(C)(C)CS(=O)(=O)CCc3c(c(F)cc4[nH]ccc34)C(=O)c3ccnc(c3)-c3nc2nn3C)c1)C(=O)O (mixture of isomers) [Compound 254, (2S)-2-Methyl-3-[3-[rac-(6R)-22-fluoro-3,6,10,10-tetramethyl-12,12,24-trioxo-12λ6-thia-3,4,19,28,30-pentazapentacyclo[23.3.1.12,5.015,23.016,20]triaconta-1(29),2(30),4,15,17,20,22,25,27-nonaen-6-yl]phenyl]propanoic Acid] | C (a value greater than 10 °C and less than or equal to 25 °C is marked “C”) | B (a value between 12-20 is marked “B”)
11 | Cn1nc2nc1-c1cccc(c1)Oc1c(F)cc3[nH]ccc3c1CCS(=O)(=O)CC(C)(C)CCCC2(C)c1cccc(CCC(=O)O)c1 (single isomer, unassigned) [Compound 95B, 3-[3-(22-fluoro-3,6,10,10-tetramethyl-12,12-dioxo-24-oxa-12λ6-thia-3,4,19,30-tetrazapentacyclo[23.3.1.12,5.015,23.016,20]triaconta-1(29),2(30),4,15,17,20,22,25,27-nonaen-6-yl)phenyl]propanoic Acid] | C (a value greater than 10 °C and less than or equal to 25 °C is marked “C”) | A (a TECC value less than 12 is marked “A”)
12 | Cn1nc2nc1-c1cc(ccn1)[S+]([O-])c1c(F)cc3[nH]ccc3c1CCS(=O)(=O)CC(C)(C)CCC[C@]2(C)c1cccc(CC2(C(=O)O)CC2)c1 (single isomer, unassigned) [Compound 271] | C (a value greater than 10 °C and less than or equal to 25 °C is marked “C”) | C (a value between 20 and 80 is marked “C”)
13 | C[C@H](Cc1ccc(C2(C)CCCC(C)(C)CS(=O)(=O)CCc3c(c(F)cc4[nH]ccc34)Oc3ccnc(c3)-c3nc2nn3C)s1)C(=O)O (single isomer, unassigned) [Compound 246B] | A (an ΔTagg value less than or equal to 5 °C is marked “A”) | B (a value between 12-20 is marked “B”)
14 | CC(Cc1cccc(C2(CNCC(F)F)CCCC(C)(C)CS(=O)(=O)CCc3c(c(F)cc4[nH]ccc34)Oc3ccc(F)c(c3)-c3nc2nn3C)c1)C(=O)O (single isomer, unassigned) [Compound 137B, 3-[3-[6-[(2,2-difluoroethylamino)methyl]-22,28-difluoro-3,10,10-trimethyl-12,12-dioxo-24-oxa-12λ6-thia-3,4,19,30-tetrazapentacyclo[23.3.1.12,5.015,23.016,20]triaconta-1(29),2(30),4,15,17,20,22,25,27-nonaen-6-yl]phenyl]-2-methyl-propanoic Acid] | B (a value above 5 °C and less than or equal to 10 °C is marked “B”) | A (a TECC value less than 12 is marked “A”)
15 | Cn1nc2nc1-c1cncc(c1)Oc1c(F)cc3[nH]ccc3c1CCS(=O)(=O)CC(C)(C)CCC[C@]2(C)c1cccc(CCC(=O)O)c1 [Compound 252, 3-[3-[(6R)-22-Fluoro-3,6,10,10-tetramethyl-12,12-dioxo-24-oxa-12λ6-thia-3,4,19,27,30-pentazapentacyclo[23.3.1.12,5.015,23.016,20]triaconta-1(29),2(30),4,15(23),16(20),17,21,25,27-nonaen-6-yl]phenyl]propanoic Acid] | C (a value greater than 10 °C and less than or equal to 25 °C is marked “C”) | C (a value between 20 and 80 is marked “C”)
